US6462173B1, “Inhibitors of phosphoserine and phosphothreonine-proline-specific isomerases” (Max-Planck-Gesellschaft zur Forderung der, priority 1997, dated 2002)

Tests used:
MPM-2 antigens = assay: GST-Pin1 pull-down / depletion of MPM-2 antigens from HeLa cell extracts, MPM-2 immunoblotting; format: binding, human
Description: To detect Pin1-binding proteins, either HeLa cells were lysed in or Xenopus extracts were diluted in a buffer (buffer A) containing 50 mM Tris-HCl, pH 8.0, 200 mM NaCl, 100 mM NaF, 1 mM sodium orthovanadate, 10% glycerol, 1% Triton X100, 10 μg/ml aprotinin, 50 μg/ml phenylmethylsulfonyl fluoride and 1 mM DTT. The lysates were preclarified with boiled S. aureus bacteria (CalBiochem) and then incubated with 10 μl of agarose beads containing various GST-Pin1 proteins or control GST for 2 h at 4° C. The precipitated proteins were washed 5 times in the same buffer and subjected to immunoblotting analysis. Immunoprecipitation and immunoblotting analysis using MPM-2 antibody (Davis et al. 1983), which was kindly provided by J. Kuang, Pin1 antibodies (Lu et al., 1996, kindly provided by M. White or newly generated), anti-phospho.Tyr antibody (UBI), anti-Cdc25C (Ogg, et al., 1994) (from H. Piwnica-Worms and Santa Cruz Biotechnology), anti-Cdc27, anti-Plk1 (Zymed), anti-Cdc2 (Solomon, M. J., M. Glotzer, T. H. Lee, M. Philippe and M. W. Kirschner. Cell 63:1013-1024 (1991), anti-human Myt1, anti-human cyclin B1 and anti-Xenopus cyclin B were performed, as described previously in Lu and Hunter, 1995; Lu et al., 1996).
To determine whether GST-Pin1 can deplete MPM-2 antigens and to estimate what concentrations of Pin1 are required to completely deplete MPM-2 antigens, mitotic extracts were incubated with different amounts of GST-Pin1, followed by analyzing MPM-2 antigens remaining in the depleted supernatants. The total cellular Pin1 concentration in HeLa cells was estimated to be about 0.5 μM, based on immunoblotting analysis using anti-Pin1 antibodies with recombinant Pin1 protein as a standard.
To determine if the Pin1 mutants interact with mitotic phosphoproteins, GST-Pin1, -Pin1^R68,69A and -Pin1^H59A fusion proteins were incubated with interphase or mitotic HeLa cell extracts and associated proteins subjected to MPM-2 immunoblotting analysis. […] A few proteins including the most strongly reacting p55 band could still be recognized. […] Thus, mutating the residues that are implicated in binding either the substrate's putative phosphate group or the substrate's Pro residue abolish the ability of Pin1 to bind MPM-2 antigens.

mitotic GST-Cdc25 = target: T1, mitotic GST-Cdc25 (Xenopus laevis, UniProt P30309); assay: Cdc25 activity assay (activation of cyclin B/Cdc2, H1 kinase); format: biochemical; details: 0.67 μM protein, 1 μM mitotic Cdc25
T1 construct: made in house
T1 sequence (P30309 1-550): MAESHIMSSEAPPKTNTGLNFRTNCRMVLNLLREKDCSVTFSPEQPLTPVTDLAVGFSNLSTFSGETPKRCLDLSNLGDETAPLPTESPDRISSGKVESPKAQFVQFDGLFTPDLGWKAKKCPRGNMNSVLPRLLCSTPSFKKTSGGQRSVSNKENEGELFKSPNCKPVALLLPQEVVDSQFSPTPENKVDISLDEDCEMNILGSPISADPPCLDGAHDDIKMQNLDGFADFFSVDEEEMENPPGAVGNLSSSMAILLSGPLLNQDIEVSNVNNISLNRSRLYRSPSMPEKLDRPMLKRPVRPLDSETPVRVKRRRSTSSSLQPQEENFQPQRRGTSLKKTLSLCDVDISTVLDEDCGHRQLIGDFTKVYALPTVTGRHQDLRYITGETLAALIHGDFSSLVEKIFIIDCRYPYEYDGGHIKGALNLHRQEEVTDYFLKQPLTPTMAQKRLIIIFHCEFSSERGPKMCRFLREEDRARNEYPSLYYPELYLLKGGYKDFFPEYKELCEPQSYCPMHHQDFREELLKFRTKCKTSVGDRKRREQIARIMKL
Description: (§1) Cdc2 was assayed using histone H1 as a substrate, as previously described in Murray, 1991; Lu and Hunter, (1995).
A subthreshold concentration of GST cyclin B (10 μg) was added to 1 ml of Xenopus interphase extract for thirty min at room temperature (Solomon, M. J., M. Glotzer, T. H. Lee, M. Philippe and M. W. Kirschner, Cell 63:1013-1024 (1990). This was diluted 8 fold in XB+3 mM DTT, rotated for 1 h with 3 ml of GST agarose beads, washed 3 times in XBIP (XB+500 mM NaCl and 1% NP40+2 mM DTT), washed 2 times (once overnight) in EB (80 mM β glycerol phosphate, 15 mM EGTA, 15 mM MgCl2)+2 mM DTT, 500 mM NaCl and 1% NP40, and finally twice with EB+10 mM DTT. These Cdc25 assay beads were stored at 4° C. for up to 1 month. Mitotic GST-Cdc25 was purified by incubating 22 μg of GST-Cdc25, in a Xenopus mitotic extract for 30 min at 23° C., this was diluted 8 fold in XB and rotated with 50 μl of glutathione-Agarose beads (Sigma) for 1 hr at 4° C. The beads were washed 5 times in XB-IP, twice in XB+2 mM DTT and eluted in 25 μl XB+2 mM reduced GSH. The final concentration of Mitotic GST-Cdc25 was 0.36 mg/ml. […] Phosphoimager analysis of the H1 kinase assays were quantified by the Molecular Dynamics ImageQuant 3.3 software. […] The most reproducible way to quantify the Cdc25 activity in this assay was by determining the endpoint dilution of Cdc25 which could activate Cdc2. […]

cyclin B/Cdc2 = target: T2, cyclin B/Cdc2 (Xenopus laevis, UniProt P35567); assay: Activity of dephosphorylated-active cyclin B/Cdc2; format: biochemical; details: same conditions as Cdc25 assay
T2 construct: from tissue; host or cells: Xenopus interphase egg extract (Cdc2); recombinant GST cyclin B added
Description: as §1
Therefore, we tested whether Pin1 could affect the physiological activity of Cdc25, which is to dephosphorylate and activate the cyclin B/Cdc2 complex. To generate the mitotically phosphorylated form of Cdc25, GST-Cdc25 was incubated in Xenopus mitotic extracts, affinity purified on glutathione agarose beads and eluted. […] This offers one explanation for the ability of Pin1 to inhibit mitotic entry.

T2 sequence (P35567 whole entry): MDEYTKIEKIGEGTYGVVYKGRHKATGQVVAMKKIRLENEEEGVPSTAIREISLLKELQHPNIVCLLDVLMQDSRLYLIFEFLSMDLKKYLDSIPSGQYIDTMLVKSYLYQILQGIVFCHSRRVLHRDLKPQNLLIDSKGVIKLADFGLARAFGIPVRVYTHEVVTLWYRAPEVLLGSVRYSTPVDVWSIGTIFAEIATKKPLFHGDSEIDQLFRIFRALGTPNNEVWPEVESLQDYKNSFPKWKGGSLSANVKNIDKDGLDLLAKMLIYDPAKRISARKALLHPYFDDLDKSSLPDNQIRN
T2 sequence (P07818 whole entry partner): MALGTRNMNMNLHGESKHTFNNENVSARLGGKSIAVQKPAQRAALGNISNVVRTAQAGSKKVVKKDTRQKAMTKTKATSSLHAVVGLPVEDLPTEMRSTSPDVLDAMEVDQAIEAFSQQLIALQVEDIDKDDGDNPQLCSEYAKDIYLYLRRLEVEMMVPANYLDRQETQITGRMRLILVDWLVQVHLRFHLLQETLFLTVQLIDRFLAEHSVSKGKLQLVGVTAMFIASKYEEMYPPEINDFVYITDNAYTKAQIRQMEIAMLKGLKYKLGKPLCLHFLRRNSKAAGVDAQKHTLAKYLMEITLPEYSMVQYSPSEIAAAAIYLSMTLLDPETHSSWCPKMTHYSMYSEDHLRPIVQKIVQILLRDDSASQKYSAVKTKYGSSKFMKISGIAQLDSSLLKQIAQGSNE

Substance: Pin1: essential mitotic peptidyl-prolyl cis-trans isomerase, recombinant protein
- depletion of MPM-2 antigens (MPM-2 antigens; 8 μM GST-Pin1, mitotic extracts): depleted the majority of MPM-2 antigens
- binding of MPM-2 antigens (MPM-2 antigens; mitotic HeLa cell extracts, GST fusion proteins): specifically interacted with MPM-2 antigens
- effect on Cdc25 activity (mitotic GST-Cdc25): mitotic Cdc25 failed to activate the Cdc2 complex
- effect on cdc2 activity (cyclin B/Cdc2): Neither Pin1 nor the Pin1 mutant had any effect on cdc2 activity
